Measurements from patent EP3478687B1 (Daewoong Pharmaceutical Co., Ltd., priority 2016, dated 2018).

Legend:
[1] = target: T1, Recombinant purified human BTK (Homo sapiens, UniProt Q06187); assay: BTK kinase inhibitory activity, ADP-Glo kinase assay (Promega V9071); type: biochemical; conditions: for IC50: ATP 10 uM, 8 ng BTK per reaction, 1 hour 30 °C, chemiluminescence
T1 construct: purchased Promega V9071
How it was run: (§1)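 Recombinant human kinases in Tris pH 7.5 buffer with MgCl2, BSA and DTT (MnCl2 added for BTK), 4 ng JAK3 or 8 ng BTK per reaction. Poly(Glu4,Tyr1) 0.2 µg/µL with 5 µM (JAK3) or 10 µM (BTK) ATP, 1% DMSO, 1 h at 30 °C. ADP-Glo luminescence used to derive IC50.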

[2] = target: T2, Recombinant purified human JAK3 (Homo sapiens, UniProt P52333); assay: JAK3 kinase inhibitory activity, ADP-Glo kinase assay (Promega V9441); type: biochemical; conditions: ATP 5 uM, 4 ng JAK3 per reaction, 1 hour 30 °C, chemiluminescence
T2 construct: purchased Promega V9441
T2 sequence (P52333 1-1124): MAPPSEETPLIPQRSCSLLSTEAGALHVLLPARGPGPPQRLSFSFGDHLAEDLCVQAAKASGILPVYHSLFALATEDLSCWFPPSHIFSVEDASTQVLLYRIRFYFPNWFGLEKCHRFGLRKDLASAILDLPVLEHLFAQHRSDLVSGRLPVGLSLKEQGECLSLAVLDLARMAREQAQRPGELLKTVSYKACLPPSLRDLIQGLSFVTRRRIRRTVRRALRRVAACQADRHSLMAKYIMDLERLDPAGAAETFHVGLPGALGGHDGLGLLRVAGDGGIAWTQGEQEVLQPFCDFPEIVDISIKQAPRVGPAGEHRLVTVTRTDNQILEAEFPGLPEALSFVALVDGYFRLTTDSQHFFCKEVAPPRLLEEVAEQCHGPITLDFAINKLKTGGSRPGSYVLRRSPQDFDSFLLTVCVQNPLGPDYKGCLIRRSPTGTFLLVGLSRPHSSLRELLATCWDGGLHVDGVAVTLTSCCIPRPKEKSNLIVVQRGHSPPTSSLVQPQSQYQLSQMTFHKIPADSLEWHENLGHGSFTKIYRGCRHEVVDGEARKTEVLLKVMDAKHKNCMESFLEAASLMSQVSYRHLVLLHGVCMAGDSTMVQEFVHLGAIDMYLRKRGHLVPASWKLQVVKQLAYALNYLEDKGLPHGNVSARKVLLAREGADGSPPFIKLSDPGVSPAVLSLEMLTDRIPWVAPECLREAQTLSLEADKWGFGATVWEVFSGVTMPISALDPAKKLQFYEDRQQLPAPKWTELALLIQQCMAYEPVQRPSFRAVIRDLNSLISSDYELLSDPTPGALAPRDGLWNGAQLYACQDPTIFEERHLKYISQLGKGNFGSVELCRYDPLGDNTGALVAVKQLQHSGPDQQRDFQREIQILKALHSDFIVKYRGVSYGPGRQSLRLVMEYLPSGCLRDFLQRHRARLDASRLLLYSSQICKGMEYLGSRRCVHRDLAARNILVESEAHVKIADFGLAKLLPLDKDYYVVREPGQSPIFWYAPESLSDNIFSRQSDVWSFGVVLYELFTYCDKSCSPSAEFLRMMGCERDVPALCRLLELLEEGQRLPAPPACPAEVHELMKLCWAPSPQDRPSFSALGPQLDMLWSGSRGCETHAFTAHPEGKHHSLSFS
How it was run: as §1

T1 sequence (Q06187 whole entry): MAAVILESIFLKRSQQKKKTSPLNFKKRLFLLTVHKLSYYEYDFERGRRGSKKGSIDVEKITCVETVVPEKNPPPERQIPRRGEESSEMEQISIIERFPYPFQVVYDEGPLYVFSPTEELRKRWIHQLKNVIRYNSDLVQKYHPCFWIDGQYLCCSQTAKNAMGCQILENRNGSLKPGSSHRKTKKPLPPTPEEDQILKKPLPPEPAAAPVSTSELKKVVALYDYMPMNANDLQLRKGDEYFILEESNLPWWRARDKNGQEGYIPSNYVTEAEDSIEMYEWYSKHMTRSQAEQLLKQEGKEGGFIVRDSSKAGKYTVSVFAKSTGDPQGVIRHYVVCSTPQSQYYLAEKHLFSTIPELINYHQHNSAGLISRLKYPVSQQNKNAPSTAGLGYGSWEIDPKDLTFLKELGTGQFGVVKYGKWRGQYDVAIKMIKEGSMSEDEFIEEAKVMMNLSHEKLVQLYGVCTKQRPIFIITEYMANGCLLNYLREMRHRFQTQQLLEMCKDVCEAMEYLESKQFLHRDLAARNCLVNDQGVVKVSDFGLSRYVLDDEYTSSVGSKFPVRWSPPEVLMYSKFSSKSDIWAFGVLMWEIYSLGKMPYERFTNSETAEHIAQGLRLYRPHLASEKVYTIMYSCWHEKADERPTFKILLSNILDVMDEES

Row | IC50 [1] | IC50 [2] | inhibition at 1 µM ([1]; @1uM compound) | Compound
1 | 2.2 nM | 3.4 nM |  | C=CC(=O)N1CCC[C@@H](Nc2nc(Nc3cnn(CC(F)F)c3)nc3[nH]ncc23)C1 [Example 31, (R)-1-(3-(6-(1-(2,2-difluoroethyl)-1H-pyrazol-4-ylamino)-1H-pyrazolo [3,4-d]pyrimidin-4-ylamino)piperidin-1-yl)prop-2-en-1-one]
2 | 1.8 nM | 0.5 nM |  | C=CC(=O)N1CCC[C@@H](Nc2nc(Nc3cnn(Cc4cccc(OC)c4)c3)nc3[nH]nc(Cl)c23)C1 [Example 58, (R)-1-(3-(3-chloro-6-(1-(3-methoaybenzyl)-1H-pyrazol-4-ylamino)-1H-pyrazolo[3,4-d]pyrimidin-4-ylamino)piperidin-1-yl)prop-2-en-1-one]
3 | 1.1 nM | 0.5 nM |  | CCn1cc(Nc2nc(O[C@@H]3CCCN(C(=O)/C(C#N)=C/C(C)C)C3)c3c(C#N)c[nH]c3n2)cn1 [Example 156, (R,E)-4-((1-(2-cyano-4-methylpent-2-enoyl)piperidin-3-yl)oxy)-2-((1-ethyl-1H-pyrazol-4-yl)amino)-7H-pyrrolo[2,3-d]pyrimidine-5-carbonitrile]
4 | 2.1 nM | 5.2 nM |  | C=CC(=O)N1CCC[C@@H](Nc2nc(Nc3cnn(CC(=O)NC)c3)nc3[nH]ncc23)C1 [Example 35, (R)-2-(4-(4-(1-acryloylpiperidin-3-ylamino)-1H-pyrazolo[3,4-d]pyrimidin-6-ylamino)-1H-pyrazol-1-yl)-N-methylacetamide]
5 | 0.76 nM | 2 nM |  | C=CC(=O)N1CCC[C@@H](Nc2nc(Nc3cnn(CC(F)F)c3)nc3[nH]nc(SC)c23)C1 [Example 190, (R)-1-(3-((6-((1-(2,2-difluoroethyl)-1H-pyrazol-4-yl)amino)-3-(methylthio)-1H-pyrazolo[3,4-d]pyrimidin-4-yl)amino)piperidin-1-yl)prop-2-en-1-one]
6 | 1.8 nM | 0.5 nM |  | C=CC(=O)N1CCC[C@@H](Nc2nc(Nc3cnn(Cc4cccc(OC)c4)c3)nc3[nH]cc(Cl)c23)C1 [Example 41, (R)-1-(3-(5-chloro-2-(1-(3-methoaybenzyl)-1H-pyrazol-4-ylamino)-7H-pyrrolo[2,3-d]pyrimidin-4-ylamino)piperidin-1-yl)prop-2-en-1-one]
7 | 1.2 nM | 2.7 nM |  | CC(C)(C)/C=C(\C#N)C(=O)N1CCC[C@@H](Nc2nc(Nc3cnn(C4CC4)c3)nc3[nH]nc(Cl)c23)C1 [Example 163, (R,E)-2-(3-((3-chloro-6-((1-cyclopropyl-1H-pyrazol-4-yl)amino)-1H-pyrazolo[3,4-d]pyrimidin-4-yl)amino)piperidine-1-carbonyl)-4,4-dimethylpent-2-enenitrile]
8 | 1.7 nM | 0.7 nM |  | C=CC(=O)N1CCC[C@@H](Nc2nc(Nc3cnn(C(F)F)c3)nc3[nH]nc(Cl)c23)C1 [Example 64, (R)-1-(3-((3-chloro-6-((1-(difluoromethyl)-1H-pyrazol-4-yl)amino)-1H-pyrazolo[3,4-d]pyrimidin-4-yl)amino)piperidin-1-yl)prop-2-en-1-one]
9 | 2.2 nM | 8.8 nM |  | N#C/C(=C\C1CC1)C(=O)N1CCC[C@@H](Nc2nc(Nc3cnn(C4CC4)c3)nc3[nH]nc(Cl)c23)C1 [Example 164, (R,E)-2-(3-((3-chloro-6-((1-cyclopropyl-1H-pyrazol-4-yl)amino)-1H-pyrazolo[3,4-d]pyrimidin-4-yl)amino)piperidine-1-carbonyl)-3-cyclopropylacrylonitrile]
10 | 7.5 nM | 7.8 nM |  | C=CC(=O)N1CC[C@@H](C)[C@@H](Nc2nc(Nc3cnn(CC(F)(F)F)c3)nc3[nH]nc(Cl)c23)C1 [Example 120, 1-((3R,4R)-3-((3-chloro-6-((1-(2,2,2-trifluoroethyl)-1H-pyrazol-4-yl)amino)-1H-pyrazolo[3,4-d]pyrimidin-4-yl)amino)-4-methylpiperidin-1-yl)prop-2-en-1-one]
11 | 92.7 nM | > 80 nM |  | CCn1cc(Nc2nc(N[C@H]3CN(C(=O)CC#N)CC[C@H]3F)c3c(Cl)n[nH]c3n2)cn1 [Example 138]
12 | 1.7 nM | 1.1 nM |  | C=CC(=O)N1CCC[C@@H](Nc2nc(Nc3ccc(N4CCOCC4)cc3)nc3[nH]cc(Cl)c23)C1 [Example 61, (R)-1-(3-((5-chloro-2-((4-morpholinophenyl)amino)-7H-pyrrolo[2,3-d]pyrimidin-4-yl)amino)piperidin-1-yl)prop-2-en-1-one]
13 | 5.2 nM | 1.1 nM |  | C=CC(=O)N1CCC[C@@H](Nc2nc(Nc3cnn(CC(=O)NC)c3)nc3[nH]nc(Cl)c23)C1 [Example 47, (R)-2-(4-(4-(1-acryloylpiperidin-3-ylamino)-3-chloro-1H-pyrazolo[3,4-d]pyrimidin-6-ylamino)-1H-pyrazol-1-yl)-N-methylacetamide]
14 | 1.4 nM | 7.4 nM |  | C=CC(=O)N1CCC[C@@H](Nc2nc(Nc3cnoc3)nc3[nH]ncc23)C1 [Example 146, (R)-1-(3-((6-(isoxazol-4-ylamino)-1H-pyrazolo[3,4-d]pyrimidin-4-yl)amino)piperidin-1-yl)prop-2-en-1-one]
15 | 6 nM | 1 nM |  | CCn1cc(Nc2nc(S[C@@H]3CCCN(C(=O)/C(C#N)=C/C4CC4)C3)c3cc[nH]c3n2)cn1 [Example 173, (R,E)-3-cyclopropyl-2-(3-((2-((1-ethyl-1H-pyrazol-4-yl)amino)-7H-pyrrolo[2,3-d]pyrimidin-4-yl)thio)piperidine-1-carbonyl)acrylonitrile]
16 | 1.7 nM | 5.7 nM |  | C=CC(=O)N1CCC[C@@H](Nc2nc(Nc3cnn(C4CC4)c3)nc3[nH]ncc23)C1 [Example 67, (R)-1-(3-((6-((1-cyclopropyl-1H-pyrazol-4-yl)amino)-1H-pyrazolo [3,4-d]pyrimidin-4-yl)amino)piperidin-1-yl)prop-2-en-1-one]
17 | 4.5 nM | 27.1 nM |  | C=CC(=O)N1CC[C@@H](C)[C@@H](N(C)c2nc(Nc3cnn(CC)c3)nc3[nH]nc(Cl)c23)C1 [Example 159]
18 |  | 186 nM | 3.3% | C[C@@H]1CCN(C(=O)CC#N)C[C@@H]1N(C)c1nc(Nc2ccc(N3CCN(C)CC3)cc2)nc2[nH]ccc12 [Example 28, 3-((3R,4R)-4-methyl-3-(methyl(2-(4-(4-methylpiperazin-1-yl)phenylamino)-7H-pyrrolo[2,3-d]pyrimidin-4-yl)amino)piperidin-1-yl)-3-oxopropanenitrile]
19 | 15.3 nM | 0.4 nM |  | C=CC(=O)N1CCC[C@@H](Nc2nc(Nc3cnn(CC(=O)NC)c3)nc3[nH]ccc23)C1 [Example 24, (R)-2-(4-(4-(1-acryloylpiperidin-3-ylamino)-7H-pyrrolo[2,3-d]pyrimidin-2-ylamino)-1H-pyrazol-1-yl)-N-methylacetamide]
20 | 1.7 nM | 0.3 nM |  | C=CC(=O)N1CCC[C@@H](Nc2nc(Nc3cnn(CC(C)C)c3)nc3[nH]cc(Cl)c23)C1 [Example 63, (R)-1-(3-((5-chloro-2-((1-isobutyl-1H-pyrazol-4-yl)amino)-7H-pyrrolo[2,3-d]pyrimidin-4-yl)amino)piperidin-1-yl)prop-2-en-1-one]
21 | 1.8 nM | 1.6 nM |  | C=CC(=O)N1CCC[C@@H](Sc2nc(Nc3cnn(C(C)(C)C)c3)nc3[nH]nc(Cl)c23)C1 [Example 112, (R)-1-(3-((6-((1-(tert-butyl)-1H-pyrazol-4-yl)amino)-3-chloro-1H-pyrazolo [3,4-d]pyrimidin-4-yl)thio)piperidin-1-yl)prop-2-en-1-one]
22 | 4.3 nM | 0.1 nM |  | C=CC(=O)N1CCC[C@@H](Nc2nc(Nc3cnn(C(F)F)c3)nc3[nH]cc(Cl)c23)C1 [Example 38, (R)-1-(3-(5-chloro-2-(1-(difluoromethyl)-1H-pyrazol-4-ylamino)-7H-pyrrolo[2,3-d]pyrimidin-4-ylamino)piperidin-1-yl)prop-2-en-1-one]
